# Values quoted from earlier work in patent publication US5604233A, “Lactone stable formulation of 7-ethyl camptothecin and methods for uses thereof” (priority 1994, dated 1997).
# Tests used:
# [1] = cited from earlier work
# topoisomerase I = settings: cited from earlier work
# L1210 leukemia = settings: 10-100 mg/kg intraperitoneally; cited from earlier work
# preclinical tumor models = settings: cited from earlier work
# [2] = U.S. Pat. No. 4,713,246; cited from earlier work
# [3] = Phase II; cited from earlier work
# [4] = mice; cited from earlier work
smiles,measurement,setting,value
"CCc1c2c(nc3ccccc13)-c1cc3c(c(=O)n1C2)COC(=O)C3(O)CC (centres unmarked) [ECPT, 7-ethyl camptothecin]",solubility in water,[1],insufficiently water soluble for clinical use
same,inhibition of Topoisomerase I,topoisomerase I,potent inhibitor
same,results relative to CPT-11 under the same conditions,L1210 leukemia,inferior
same,antitumor activity in preclinical studies,preclinical tumor models,broad anticancer activity
COc1cc([C@@H]2c3cc4c(cc3[C@@H](O[C@@H]3O[C@@H]5CO[C@@H](C)O[C@H]5[C@H](O)[C@H]3O)[C@H]3COC(=O)[C@H]23)OCO4)cc(OC)c1O [etoposide],bioavailability following oral administration versus intravenous,[2],substantially equivalent
CCC(O)(C(=O)O)c1cc2n(c(=O)c1CO)Cc1cc3ccccc3nc1-2 (centres unmarked) [sodium camptothecin],toxicity in Phase II studies,[3],"unpredictable and severe myelosuppression, gastrointestinal toxicity, hemorrhagic cystitis, and alopecia"
CC[C@@]1(O)C(=O)OCc2c1cc1n(c2=O)Cc2cc3ccccc3nc2-1 [lactone form of camptothecin],toxicity relative to sodium camptothecin,[4],10 fold
same,antitumor activity in preclinical studies,preclinical tumor models,significant antitumor activity
